In US8633315B2, “Substituted hydroxyethyl amine compounds as beta-secretase modulators and methods of use” (Amgen Inc., priority 2007, dated 2014):
Like-named read-outs stand apart in the source and are kept apart here.

Columns and labels:
[1] = biological target: BACE1 (Homo sapiens, UniProt P56817); assay: In vitro enzymatic BACE FRET (fluorescence resonance energy transfer) assay; format: biochemical
Method in brief: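 Fluorescence (ex 488 nm, […]) was read after Tris addition raised pH to neutral, ending a one-hour incubation. Reaction started with 50 nM fluorophore/quencher peptide substrate in pH 4.2 acetate (0.05 M) containing 100 uM genapol and 10% DMSO final.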

[2] = system: Cells stably expressing Amyloid Precursor Protein (APP); assay: In vitro BACE cell-based assay (HEK cell assay): Aβ40 in conditioned medium by sandwich ELISA
Method in brief: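 Secreted Aβ40 was quantified by time-resolved fluorescence sandwich ELISA, capturing with pAb40 for 3 h at 4 °C and detecting with biotinylated 6E10 for 2 h at 4 °C. Media came from APP-expressing cells exposed 24 h to compounds (10-point series from 100 or 10 μM, 0.1% DMSO); IC50 derived from percent of control.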

[3] = system: Abeta peptide; assay: In vivo inhibition of beta-secretase: Abeta peptide in CSF and brain after oral dosing; conditions: orally dosed at about 30 mg/kg; for inhibition in vivo at 30 mg/kg: Rattus norvegicus, po, CSF, read-out: reduction of Abeta peptide in the CSF of the rat
Description: In Vivo Inhibition of Beta-Secretase
Several animal models, including mouse, rat, dog, and monkey, may be used to screen for inhibition of beta-secretase activity in vivo following administration of a test compound sample. Animals used in this invention can be wild type, transgenic, or gene knockout animals. For example, the Tg2576 mouse model, prepared and conducted as described in Hsiao et al., 1996, Science 274, 99-102, and other non-transgenic or gene knockout animals are useful to analyze in vivo inhibition of Amyloid beta peptide (Abeta) production in the presence of inhibitory test compounds. Generally, 2 to 18 month old Tg2576 mice, gene knockout mice or non-transgenic animals are administered test compounds formulated in vehicles, such as cyclodextran, phosphate buffers, hydroxypropyl methylcellulose or other suitable vehicles. […] A separate group of animals receive 2% hydroxypropyl methylcellulose, 1% Tween80 alone, containing no test compound, and serve as a vehicle-control group. At the end of the test period, animals are sacrificed and brain tissues, plasma or cerebrospinal fluid are collected. Brains are either homogenized in 10 volumes (w/v) of 0.2% diethylamine (DEA) in 50 mM NaCl (Best et al., 2005, Journal of Pharmacology and Experimental Therapeutics, 313, 902-908), or in 10 volumes of 0.5% TritonX-100 in Tris-buffered saline (pH at about 7.6). Homogenates are centrifuged at 355,000 g, 4° C. for 30 minutes. CSF or brain supernatants are then analyzed for the presence of Abeta peptide by specific sandwich ELISA assays based on ECL (Electrochemiluminescence) technology. For example, rat Abeta40 is measured using biotinylated-4G8 (Signet) as a capture antibody and Fab40 (an in-house antibody specific to the C-terminal of Abeta40) as a detection antibody. For example, 4 hours after administration of 30 mg/kg oral dose of the test compound in 2% hydroxypropyl methylcellulose, 1% Tween80 (pH2.2) to 200 g male Sprague Dawley rats, Abeta peptide levels are measured for reduction by X % and Y % in cerebrospinal fluid and brain, respectively, when compared to the levels measured in the vehicle-treated or control […].
Actual vehicles used: Oral: 2% HPMC, 1% Tween80, pH 2.2
• IV: 5% EtOH, 45% Propylene glycol in 5% Dextrose

[4] = biological target: CYP3A (Homo sapiens, UniProt P08684); assay: CYP3A inhibition assay (midazolam, pooled human liver microsomes); format: in vitro ADME; conditions: microsomes
[5] = Microsomal stability assay, human liver microsomes; format: in vitro ADME
Description: (§1) Microsomal Stability Assay

[6] = Microsomal stability assay, rat liver microsomes; format: in vitro ADME
Description: as §1

[7] = Homo sapiens, HEK293, 24 h, Aβ40 in conditioned medium after 24 h incubation

BACE1, sequence (P56817 46-501, species assumed): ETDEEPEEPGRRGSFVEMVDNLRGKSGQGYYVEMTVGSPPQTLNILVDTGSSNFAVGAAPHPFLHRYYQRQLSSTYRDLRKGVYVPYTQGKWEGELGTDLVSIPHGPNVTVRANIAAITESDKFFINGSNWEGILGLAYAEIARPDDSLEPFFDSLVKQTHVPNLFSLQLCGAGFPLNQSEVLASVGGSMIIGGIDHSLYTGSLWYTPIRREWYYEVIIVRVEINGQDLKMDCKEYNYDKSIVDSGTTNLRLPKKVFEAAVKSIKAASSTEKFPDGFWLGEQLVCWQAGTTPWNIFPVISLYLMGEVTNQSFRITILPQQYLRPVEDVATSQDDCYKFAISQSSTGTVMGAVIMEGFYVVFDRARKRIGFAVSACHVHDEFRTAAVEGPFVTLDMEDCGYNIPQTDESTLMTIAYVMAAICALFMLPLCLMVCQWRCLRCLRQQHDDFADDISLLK
CYP3A, sequence (P08684 2-503): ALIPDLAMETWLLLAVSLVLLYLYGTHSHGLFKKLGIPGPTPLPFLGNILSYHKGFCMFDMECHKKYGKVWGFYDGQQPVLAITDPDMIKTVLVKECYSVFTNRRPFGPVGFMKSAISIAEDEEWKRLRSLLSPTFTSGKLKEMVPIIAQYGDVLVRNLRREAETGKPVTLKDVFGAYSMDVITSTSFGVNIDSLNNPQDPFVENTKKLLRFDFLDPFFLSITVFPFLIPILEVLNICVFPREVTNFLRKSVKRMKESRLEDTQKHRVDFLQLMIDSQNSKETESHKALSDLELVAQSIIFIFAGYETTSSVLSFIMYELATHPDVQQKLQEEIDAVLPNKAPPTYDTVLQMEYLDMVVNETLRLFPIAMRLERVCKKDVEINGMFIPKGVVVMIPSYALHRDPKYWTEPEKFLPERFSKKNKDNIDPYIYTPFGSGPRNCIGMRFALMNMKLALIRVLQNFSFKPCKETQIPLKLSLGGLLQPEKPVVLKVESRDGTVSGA

Compound	IC50 [1]	IC50 [2, 7]	inhibition in vivo at 30 mg/kg [3]	other results
C=CC[C@H](NC(C)=O)[C@H](O)CN[C@H]1CC2(CCC2)Oc2c1cc(CC(C)(C)C)nc2NC [Example 44, N-((1S)-1-((1R)-2-(((4′S)-6′-(2,2-dimethylpropyl)-8′-(methylamino)-3′,4′-dihydrospiro[cyclobutane-1,2′-pyrano[2,3-c]pyridin]-4′-yl)amino)-1-hydroxyethyl)-3-buten-1-yl)acetamide]	65 nM	20 nM	≥ 5%	–
C=CC[C@H](NC(=O)COC)[C@H](O)CN[C@H]1CC2(CCC2)Oc2c1cc(CC(C)(C)C)nc2NC [Example 47, N-((1S)-1-((1R)-2-(((4′S)-6′-(2,2-dimethylpropyl)-8′-(methylamino)-3′,4′-dihydrospiro[cyclobutane-1,2′-pyrano[2,3-c]pyridin]-4′-yl)amino)-1-hydroxyethyl)-3-buten-1-yl)-2-(methyloxy)acetamide]	164 nM	38 nM	–	reduction of Abeta peptide in the brain of the rat ([3]; brain): ~25%
CC#CC[C@H](NC(=O)[C@@H](C)OC)[C@H](O)CN[C@H]1CC2(CCC2)Oc2ncc(CC(C)(C)C)cc21 [Example 87, (2R)-N-((1S)-1-((1R)-2-(((4′S)-6′-(2,2-dimethylpropyl)-3′,4′-dihydrospiro[cyclobutane-1,2′-pyrano[2,3-b]pyridin]-4′-yl)amino)-1-hydroxyethyl)-3-pentyn-1-yl)-2-(methyloxy)propanamide]	109 nM	185 nM	≥ 5%	–
CC#CCC(NC(=O)C1CCC(=O)O1)C(O)CNC1CC2(CCC2)Oc2ncc(CC(C)(C)C)cc21 [Example 88, (S)-N((2R,3S)-1((S)-2,2-spirocyclobutane-6-neopentyl-3′,4′-dihydro-2H-pyrano[2,3-b]pyridin]-4′-ylamino)-2-hydroxyhept-5-yn-3-yl)-5-oxo-tetrahydrofuran-2-carboxamide.]	20 nM	72 nM	≥ 5%	–
CC#CC[C@H](NC(=O)COC)[C@H](O)CN[C@H]1CC2(CCC2)Oc2ncc(CC(C)(C)C)cc21 [Example 89, N-((1S)-1-((1R)-2-(((4′S)-6′-(2,2-dimethylpropyl)-3′,4′-dihydrospiro[cyclobutane-1,2′-pyrano[2,3-b]pyridin]-4′-yl)amino)-1-hydroxyethyl)-3-pentyn-1-yl)-2-(methyloxy)acetamide]	71 nM	132 nM	≥ 5%	–
C=CC[C@H](NC(=O)CF)[C@H](O)CN[C@H]1CC2(CCC2)Oc2ncc(CC(C)(C)C)cc21 [Example 90, N-((1S)-1-((1R)-2-(((4′S)-6′-(2,2-dimethylpropyl)-3′,4′-dihydrospiro[cyclobutane-1,2′-pyrano[2,3-b]pyridin]-4′-yl)amino)-1-hydroxyethyl)-3-buten-1-yl)-2-fluoroacetamide]	68 nM	–	≥ 5%	–
C=CC[C@H](NC(=O)CCOC)[C@H](O)CN[C@H]1CC2(CCC2)Oc2ncc(CC(C)(C)C)cc21 [Example 91, N-((1S)-1-((1R)-2-(((4′S)-6′-(2,2-dimethylpropyl)-3′,4′-dihydrospiro[cyclobutane-1,2′-pyrano[2,3-b]pyridin]-4′-yl)amino)-1-hydroxyethyl)-3-buten-1-yl)-3-(methyloxy)propanamide]	68 nM	–	≥ 5%	–
C=CCC(NC(=O)COC)C(O)CNC1CC2(CC(O)C2)Oc2ncc(CC(C)(C)C)cc21 [Example 107, N-((1S)-1-((1R)-2-(((1s,3S,4′S)-6′-(2,2-dimethylpropyl)-3-hydroxy-3′,4′-dihydrospiro[cyclobutane-1,2′-pyrano[2,3-b]pyridin]-4′-yl)amino)-1-hydroxyethyl)-3-buten-1-yl)-2-(methyloxy)acetamide]	16 nM	35 nM	≥ 5%	–
N-((1S)-1-((1R)-2-(((4′S)-6′-(2,2-dimethylpropyl)-8′-(1-methyl-1H-imidazol-2-yl)-3′,4′-dihydrospiro[cyclobutane-1,2′-pyrano[2,3-c]pyridin]-4′-yl)amino)-1-hydroxyethyl)-3-buten-1-yl)-2-methoxyacetamide [Example 239]	–	–	–	IC50 ([1]; read-out: BACE 1 FRET assay): 208 nM; IC50 [2]: 1500 nM; IC50 [4]: 1100 nM; HLM [5]: 311 µL/min/mg; RLM [6]: 340 µL/min/mg
